Results published in ChEMBL document CHEMBL3102707, “Synthesis and structure-activity relationship of 2-adamantylmethyl tetrazoles as potent and selective inhibitors of human 11β-hydroxysteroid dehydrogenase type 1 (11β-HSD1)” (Bioorg Med Chem Lett, 2014).

Experiments:
[1] = Drug level in mouse liver at 10 mg/kg, po after 3 hrs; type: ADME, organism-based; design: dose 10 mg/kg, route oral; conditions: read-out: Drug uptake
[2] = Plasma concentration in mouse at 10 mg/kg, po after 3 hrs; type: ADME, organism-based; design: dose 10 mg/kg, route oral
[3] = Drug level in mouse adipose tissue at 10 mg/kg, po after 3 hrs; type: ADME, organism-based; design: dose 10 mg/kg, route oral; conditions: read-out: Drug uptake
[4] = Aqueous solubility of the compound; type: physicochemical; conditions: buffer

Row | concentration at 3 h [1] | concentration at 3 h [2] | concentration at 3 h [3] | solubility [4] | Compound
1 | 23700 nM | 820 nM | < 75 nM | – | N#Cc1ccc(-c2ccc(C3(Cc4nnn[nH]4)C4CC5CC3CC(C4)C5O)cc2)cc1 (racemic)
2 | 13900 nM | 1560 nM | 160 nM | – | OC1C2CC3CC1CC(C2)C3(Cc1nnn[nH]1)c1ccc(-c2ccc(F)cc2)cc1 (single isomer, unassigned; enantiomer 1)
3 | – | – | – | soluble | c1ccc(-c2ccc(C3(Cc4nnn[nH]4)C4CC5CC(C4)CC3C5)cc2)cc1 (configuration not stated)
